The record followed here is EPA's ToxValDB 9.5 (doi:10.2903/j.efsa.2006.66r).

In general, NOAEL refers to the highest dose or exposure tested at which no adverse effect was seen.

For one series, the system named is Canidae. The note with it: subchronic; duration: 90 days; oral; Dog Other; neurology.
The next series deals with Colinus virginianus. The note with it: reproduction developmental; duration: 21 weeks; oral; diet; reproduction.
Another series relates to Daphnia magna. Conditions: chronic/long-term; duration: 21 days; reproduction.
Another series deals with Oncorhynchus mykiss. Conditions: chronic/long-term; duration: 21 days; mortality.
The subject of the next series is Poecilus cupreus. Conditions: not reported; mortality.
A further series has as its system Rattus norvegicus. The note with it: for NOAEL: neurology.
The subject of a further series is Tagia sp. Conditions: chronic/long-term; duration: 56 days.

Regarding `CCCSP(=O)(OCC)SCCC` [Ethoprop], the NOAEL in the series with Canidae turned out to be 0.1 mg/kg-day; in the series on Rattus norvegicus (acute, oral) it was 1 mg/kg-day; with Rattus norvegicus (chronic, duration: 2 years) it was 0.04 mg/kg-day; in the series with Rattus norvegicus (short-term, duration: 28 days, oral), 0.1 mg/kg-day. Also, the NOEC was less than 0.6 mg/kg-day in the series on Colinus virginianus, 0.002 mg/L in the series with Daphnia magna, 0.064 mg/L with Oncorhynchus mykiss and less than 1.67 mg/kg in the series on Tagia sp.. Moreover, the LEL with Poecilus cupreus came to 7000 g/ha. This compound also displayed an NOEL in the series with Rattus norvegicus (reproduction developmental, reproduction) of 1.3 mg/kg-day.
